# In ChEMBL document CHEMBL1129369, “Forskolin carbamates: binding and activation studies with type I adenylyl cyclase” (J Med Chem, 1996):
# pEC50, pIC50: −log10 of the molar value.
# Target: T1, Adenylate cyclase type 1 (Homo sapiens, UniProt Q08828)
# Assay: (§1) Inhibition of [125 I]6-IHPP-forskolin binding to adenylate cyclase 1
# Conditions: not given
# Target sequence in this assay (Q08828 whole entry): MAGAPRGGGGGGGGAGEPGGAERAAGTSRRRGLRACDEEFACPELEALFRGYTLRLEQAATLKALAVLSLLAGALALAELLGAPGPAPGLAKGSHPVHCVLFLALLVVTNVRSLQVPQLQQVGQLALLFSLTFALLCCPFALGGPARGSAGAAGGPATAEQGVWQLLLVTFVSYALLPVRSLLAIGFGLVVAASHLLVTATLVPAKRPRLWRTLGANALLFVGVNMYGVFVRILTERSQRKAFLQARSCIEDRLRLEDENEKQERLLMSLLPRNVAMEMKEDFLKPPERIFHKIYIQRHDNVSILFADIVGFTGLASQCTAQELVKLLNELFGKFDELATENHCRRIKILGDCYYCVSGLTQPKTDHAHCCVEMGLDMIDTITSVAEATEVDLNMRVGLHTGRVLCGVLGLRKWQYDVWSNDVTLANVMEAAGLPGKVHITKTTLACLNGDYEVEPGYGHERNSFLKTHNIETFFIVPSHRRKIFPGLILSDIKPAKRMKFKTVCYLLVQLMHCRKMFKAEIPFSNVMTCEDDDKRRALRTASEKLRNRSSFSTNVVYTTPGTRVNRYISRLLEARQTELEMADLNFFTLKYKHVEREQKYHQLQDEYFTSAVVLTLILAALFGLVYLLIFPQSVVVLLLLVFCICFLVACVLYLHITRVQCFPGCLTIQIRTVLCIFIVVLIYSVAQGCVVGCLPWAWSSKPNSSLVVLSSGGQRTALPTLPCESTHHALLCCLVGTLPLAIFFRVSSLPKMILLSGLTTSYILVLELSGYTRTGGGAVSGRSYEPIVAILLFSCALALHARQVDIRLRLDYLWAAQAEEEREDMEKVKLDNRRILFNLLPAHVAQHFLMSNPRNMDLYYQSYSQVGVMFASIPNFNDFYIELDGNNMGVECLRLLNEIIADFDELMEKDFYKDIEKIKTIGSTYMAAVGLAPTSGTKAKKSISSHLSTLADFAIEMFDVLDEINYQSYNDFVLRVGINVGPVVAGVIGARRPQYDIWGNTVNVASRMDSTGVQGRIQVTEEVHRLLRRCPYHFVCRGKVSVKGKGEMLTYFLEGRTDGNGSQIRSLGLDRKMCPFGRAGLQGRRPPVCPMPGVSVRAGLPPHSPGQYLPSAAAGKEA
row,SMILES,pIC50
1,C=C[C@@]1(C)CC(=O)[C@]2(O)[C@@]3(C)[C@@H](O)CCC(C)(C)[C@@H]3[C@H](OC(=O)NCCOC)[C@H](O)[C@@]2(C)O1,< 6.82
2,C=C[C@@]1(C)CC(=O)[C@]2(O)[C@@]3(C)[C@@H](O)CCC(C)(C)[C@@H]3[C@H](OC(=O)NCCN(C)C)[C@H](O)[C@@]2(C)O1,< 6.82
3,C=C[C@@]1(C)CC(=O)[C@]2(O)[C@@]3(C)[C@@H](O)CCC(C)(C)[C@@H]3[C@H](OC(=O)NCCC(=O)OCC)[C@H](OC(C)=O)[C@@]2(C)O1,> 6.82

# The remaining lines, values ahead:
row,pIC50,SMILES
1,> 6.82,C=C[C@@]1(C)CC(=O)[C@]2(O)[C@@]3(C)[C@@H](O)CCC(C)(C)[C@@H]3[C@H](OC(=O)NCCN(C)C)[C@H](OC(C)=O)[C@@]2(C)O1
2,> 6.82,C=C[C@@]1(C)CC(=O)[C@]2(O)[C@@]3(C)[C@@H](O)CCC(C)(C)[C@@H]3[C@H](OC(=O)NCCc3ccccn3)[C@H](O)[C@@]2(C)O1
3,> 6.82,C=C[C@@]1(C)CC(=O)[C@]2(O)[C@@]3(C)[C@@H](O)CCC(C)(C)[C@@H]3[C@H](O)[C@H](OC(=O)NCCc3ccc(O)cc3)[C@@]2(C)O1
4,> 6.82,C=C[C@@]1(C)CC(=O)[C@]2(O)[C@@]3(C)[C@@H](O)CCC(C)(C)[C@@H]3[C@H](OC(=O)NCCc3ccc(N)cc3)[C@H](OC(C)=O)[C@@]2(C)O1
5,< 6.82,C=C[C@@]1(C)CC(=O)[C@]2(O)[C@@]3(C)[C@@H](O)CCC(C)(C)[C@@H]3[C@H](OC(=O)NCC3CCCCC3)[C@H](O)[C@@]2(C)O1

# Target: T1, Adenylate cyclase type 1
# Assay: Ability to activate the conversion of [32P] ATP to [32P]-cyclic AMP mediated by adenylate cyclase 1
# Format: functional
# Conditions: not given
# Target sequence in this assay (Q08828 whole entry): as above
row,SMILES,pEC50
1,C=C[C@@]1(C)CC(=O)[C@]2(O)[C@@]3(C)[C@@H](O)CCC(C)(C)[C@@H]3[C@H](OC(=O)NCCC)[C@H](O)[C@@]2(C)O1,< 5.70
2,C=C[C@@]1(C)CC(=O)[C@]2(O)[C@@]3(C)[C@@H](O)CCC(C)(C)[C@@H]3[C@H](OC(=O)NCCOC)[C@H](O)[C@@]2(C)O1,< 5.70
3,C=C[C@@]1(C)CC(=O)[C@]2(O)[C@@]3(C)[C@@H](O)CCC(C)(C)[C@@H]3[C@H](OC(=O)NCCN(C)C)[C@H](O)[C@@]2(C)O1,< 5.70
4,C=C[C@@]1(C)CC(=O)[C@]2(O)[C@@]3(C)[C@@H](O)CCC(C)(C)[C@@H]3[C@H](OC(=O)NCCC(=O)OCC)[C@H](OC(C)=O)[C@@]2(C)O1,< 5.70

# Now from value to compound:
row,pEC50,SMILES
1,> 5.70,C=C[C@@]1(C)CC(=O)[C@]2(O)[C@@]3(C)[C@@H](O)CCC(C)(C)[C@@H]3[C@H](OC(=O)NCCN(C)C)[C@H](OC(C)=O)[C@@]2(C)O1
2,> 5.70,C=C[C@@]1(C)CC(=O)[C@]2(O)[C@@]3(C)[C@@H](O)CCC(C)(C)[C@@H]3[C@H](OC(=O)NCCc3ccccn3)[C@H](O)[C@@]2(C)O1
3,> 5.70,C=C[C@@]1(C)CC(=O)[C@]2(O)[C@@]3(C)[C@@H](O)CCC(C)(C)[C@@H]3[C@H](O)[C@H](OC(=O)NCCc3ccc(O)cc3)[C@@]2(C)O1
4,> 5.70,C=C[C@@]1(C)CC(=O)[C@]2(O)[C@@]3(C)[C@@H](O)CCC(C)(C)[C@@H]3[C@H](OC(=O)NCCc3ccc(N)cc3)[C@H](OC(C)=O)[C@@]2(C)O1
5,> 5.70,C=C[C@@]1(C)CC(=O)[C@]2(O)[C@@]3(C)[C@@H](O)CCC(C)(C)[C@@H]3[C@H](OC(=O)NCC3CCCCC3)[C@H](O)[C@@]2(C)O1

# Target: T1, Adenylate cyclase type 1
# Assay: (§2) Inhibition of [125 I]6-IHPP-forskolin binding to Adenylate cyclase 1
# Format: functional
# Conditions: not given
# Target sequence in this assay (Q08828 whole entry): as above
row,pIC50,SMILES
1,< 6.82,C=C[C@@]1(C)CC(=O)[C@]2(O)[C@@]3(C)[C@@H](O)CCC(C)(C)[C@@H]3[C@H](OC(=O)NCCC)[C@H](O)[C@@]2(C)O1

# Target: T1, Adenylate cyclase type 1
# Assay: Conversion of [32P] ATP to [32P]-cyclic AMP mediated by adenylate cyclase 1
# Format: functional
# Conditions: read-out: EC50
# Target sequence in this assay (Q08828 whole entry): as above
row,SMILES,pEC50
1,C=C[C@@]1(C)CC(=O)[C@]2(O)[C@@]3(C)[C@@H](O)CCC(C)(C)[C@@H]3[C@H](OC(=O)NCCC)[C@H](O)[C@@]2(C)O1,5.31
2,C=C[C@@]1(C)CC(=O)[C@]2(O)[C@@]3(C)[C@@H](O)CCC(C)(C)[C@@H]3[C@H](OC(=O)NCCOC)[C@H](O)[C@@]2(C)O1,5.51
3,C=C[C@@]1(C)CC(=O)[C@]2(O)[C@@]3(C)[C@@H](O)CCC(C)(C)[C@@H]3[C@H](OC(=O)NCCN(C)C)[C@H](O)[C@@]2(C)O1,5.31
4,C=C[C@@]1(C)CC(=O)[C@]2(O)[C@@]3(C)[C@@H](O)CCC(C)(C)[C@@H]3[C@H](OC(=O)NCCC(=O)OCC)[C@H](OC(C)=O)[C@@]2(C)O1,5.46

# Now those with a higher pEC50, led by results:
row,pEC50,SMILES
1,6.30,C=C[C@@]1(C)CC(=O)[C@]2(O)[C@@]3(C)[C@@H](O)CCC(C)(C)[C@@H]3[C@H](O)[C@H](OC(C)=O)[C@@]2(C)O1 [COLFORSIN]
2,5.70,C=C[C@@]1(C)CC(=O)[C@]2(O)[C@@]3(C)[C@@H](O)CCC(C)(C)[C@@H]3[C@H](OC(=O)NCCN(C)C)[C@H](OC(C)=O)[C@@]2(C)O1
3,5.74,C=C[C@@]1(C)CC(=O)[C@]2(O)[C@@]3(C)[C@@H](O)CCC(C)(C)[C@@H]3[C@H](OC(=O)NCCc3ccccn3)[C@H](O)[C@@]2(C)O1
4,5.85,C=C[C@@]1(C)CC(=O)[C@]2(O)[C@@]3(C)[C@@H](O)CCC(C)(C)[C@@H]3[C@H](O)[C@H](OC(=O)NCCc3ccc(O)cc3)[C@@]2(C)O1
5,6.30,C=C[C@@]1(C)CC(=O)[C@]2(O)[C@@]3(C)[C@@H](O)CCC(C)(C)[C@@H]3[C@H](OC(=O)NCCc3ccc(N)cc3)[C@H](OC(C)=O)[C@@]2(C)O1
6,6.00,C=C[C@@]1(C)CC(=O)[C@]2(O)[C@@]3(C)[C@@H](O)CCC(C)(C)[C@@H]3[C@H](OC(=O)NCC3CCCCC3)[C@H](O)[C@@]2(C)O1

# Target: Adenylate cyclase type 2 (Rattus norvegicus, UniProt P26769)
# Sequence (P26769 whole entry): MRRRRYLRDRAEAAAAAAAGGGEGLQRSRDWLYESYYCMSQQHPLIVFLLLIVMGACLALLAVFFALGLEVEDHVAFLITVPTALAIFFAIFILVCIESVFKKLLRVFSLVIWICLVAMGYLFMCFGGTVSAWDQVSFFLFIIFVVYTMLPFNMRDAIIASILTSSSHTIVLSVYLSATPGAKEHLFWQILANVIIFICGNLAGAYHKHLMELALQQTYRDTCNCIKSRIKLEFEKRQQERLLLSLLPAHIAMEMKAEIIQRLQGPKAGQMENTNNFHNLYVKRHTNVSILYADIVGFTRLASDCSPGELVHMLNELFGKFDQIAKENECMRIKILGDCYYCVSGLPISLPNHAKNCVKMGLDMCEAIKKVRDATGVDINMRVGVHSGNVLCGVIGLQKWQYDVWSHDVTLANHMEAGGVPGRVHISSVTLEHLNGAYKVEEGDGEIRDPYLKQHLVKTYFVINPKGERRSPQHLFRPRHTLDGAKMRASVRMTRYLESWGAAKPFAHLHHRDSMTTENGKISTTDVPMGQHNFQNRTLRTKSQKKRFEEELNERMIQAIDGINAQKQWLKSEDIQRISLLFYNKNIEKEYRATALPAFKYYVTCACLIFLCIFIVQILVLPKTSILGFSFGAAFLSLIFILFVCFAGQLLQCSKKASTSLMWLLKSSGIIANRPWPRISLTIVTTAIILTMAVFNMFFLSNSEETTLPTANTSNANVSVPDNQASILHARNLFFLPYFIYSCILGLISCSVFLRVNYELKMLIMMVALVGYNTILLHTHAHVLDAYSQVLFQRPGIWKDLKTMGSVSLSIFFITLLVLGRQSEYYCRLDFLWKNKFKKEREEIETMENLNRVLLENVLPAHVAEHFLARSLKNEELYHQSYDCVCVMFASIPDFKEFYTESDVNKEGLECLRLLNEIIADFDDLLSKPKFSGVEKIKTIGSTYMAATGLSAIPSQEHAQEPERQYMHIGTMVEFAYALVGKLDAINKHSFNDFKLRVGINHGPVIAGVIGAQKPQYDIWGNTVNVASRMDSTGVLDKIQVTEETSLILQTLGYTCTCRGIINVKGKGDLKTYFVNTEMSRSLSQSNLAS
# Assay: Ability to activate the conversion of [32P] ATP to [32P]-cyclic AMP
# Format: functional
# Conditions: not given
row,pEC50,SMILES
1,> 5.70,C=C[C@@]1(C)CC(=O)[C@]2(O)[C@@]3(C)[C@@H](O)CCC(C)(C)[C@@H]3[C@H](O)[C@H](OC(C)=O)[C@@]2(C)O1 [COLFORSIN]

# Target: T1, Adenylate cyclase type 1
# Assay: as §2
# Conditions: not given
# Target sequence in this assay (Q08828 whole entry): as the sequence (Q08828 whole entry) above
row,pIC50,SMILES
1,> 6.82,C=C[C@@]1(C)CC(=O)[C@]2(O)[C@@]3(C)[C@@H](O)CCC(C)(C)[C@@H]3[C@H](O)[C@H](OC(C)=O)[C@@]2(C)O1 [COLFORSIN]

# Target: T1, Adenylate cyclase type 1
# Assay: Maximum stimulation activity measured with 100 uM forskolin mediated by Adenylate cyclase 1
# Format: functional
# Conditions: not given
# Target sequence in this assay (Q08828 whole entry, looked up): as the sequence (Q08828 whole entry) above
row,Activity [%],SMILES
1,84,C=C[C@@]1(C)CC(=O)[C@]2(O)[C@@]3(C)[C@@H](O)CCC(C)(C)[C@@H]3[C@H](OC(=O)NCCOC)[C@H](O)[C@@]2(C)O1

# Target: T1, Adenylate cyclase type 1
# Assay: as §1
# Conditions: not given
# Target sequence in this assay (Q08828 whole entry): as above
row,SMILES,pIC50
1,C=C[C@@]1(C)CC(=O)[C@]2(O)[C@@]3(C)[C@@H](O)CCC(C)(C)[C@@H]3[C@H](OC(=O)NCCC)[C@H](O)[C@@]2(C)O1,6.26
2,C=C[C@@]1(C)CC(=O)[C@]2(O)[C@@]3(C)[C@@H](O)CCC(C)(C)[C@@H]3[C@H](OC(=O)NCCOC)[C@H](O)[C@@]2(C)O1,6.50
3,C=C[C@@]1(C)CC(=O)[C@]2(O)[C@@]3(C)[C@@H](O)CCC(C)(C)[C@@H]3[C@H](OC(=O)NCCN(C)C)[C@H](O)[C@@]2(C)O1,6.61
4,C=C[C@@]1(C)CC(=O)[C@]2(O)[C@@]3(C)[C@@H](O)CCC(C)(C)[C@@H]3[C@H](OC(=O)NCCC(=O)OCC)[C@H](OC(C)=O)[C@@]2(C)O1,7.36

# The next lines start with the values.
row,pIC50,SMILES
1,7.39,C=C[C@@]1(C)CC(=O)[C@]2(O)[C@@]3(C)[C@@H](O)CCC(C)(C)[C@@H]3[C@H](O)[C@H](OC(C)=O)[C@@]2(C)O1 [COLFORSIN]
2,7.14,C=C[C@@]1(C)CC(=O)[C@]2(O)[C@@]3(C)[C@@H](O)CCC(C)(C)[C@@H]3[C@H](OC(=O)NCCN(C)C)[C@H](OC(C)=O)[C@@]2(C)O1
3,6.93,C=C[C@@]1(C)CC(=O)[C@]2(O)[C@@]3(C)[C@@H](O)CCC(C)(C)[C@@H]3[C@H](OC(=O)NCCc3ccccn3)[C@H](O)[C@@]2(C)O1
4,7.02,C=C[C@@]1(C)CC(=O)[C@]2(O)[C@@]3(C)[C@@H](O)CCC(C)(C)[C@@H]3[C@H](O)[C@H](OC(=O)NCCc3ccc(O)cc3)[C@@]2(C)O1
5,7.41,C=C[C@@]1(C)CC(=O)[C@]2(O)[C@@]3(C)[C@@H](O)CCC(C)(C)[C@@H]3[C@H](OC(=O)NCCc3ccc(N)cc3)[C@H](OC(C)=O)[C@@]2(C)O1
6,6.36,C=C[C@@]1(C)CC(=O)[C@]2(O)[C@@]3(C)[C@@H](O)CCC(C)(C)[C@@H]3[C@H](OC(=O)NCC3CCCCC3)[C@H](O)[C@@]2(C)O1

# Target: T1, Adenylate cyclase type 1
# Assay: Maximum stimulation activity measured with 100 uM forskolin mediated by adenylate cyclase 1
# Format: functional
# Conditions: not given
# Target sequence in this assay (Q08828 whole entry, looked up): as the sequence (Q08828 whole entry) above
row,SMILES,Activity [%]
1,C=C[C@@]1(C)CC(=O)[C@]2(O)[C@@]3(C)[C@@H](O)CCC(C)(C)[C@@H]3[C@H](OC(=O)NCCC)[C@H](O)[C@@]2(C)O1,61
2,C=C[C@@]1(C)CC(=O)[C@]2(O)[C@@]3(C)[C@@H](O)CCC(C)(C)[C@@H]3[C@H](OC(=O)NCCN(C)C)[C@H](O)[C@@]2(C)O1,131
3,C=C[C@@]1(C)CC(=O)[C@]2(O)[C@@]3(C)[C@@H](O)CCC(C)(C)[C@@H]3[C@H](OC(=O)NCCC(=O)OCC)[C@H](OC(C)=O)[C@@]2(C)O1,157

# More lines, now with the values ahead:
row,Activity [%],SMILES
1,100,C=C[C@@]1(C)CC(=O)[C@]2(O)[C@@]3(C)[C@@H](O)CCC(C)(C)[C@@H]3[C@H](O)[C@H](OC(C)=O)[C@@]2(C)O1 [COLFORSIN]
2,100,C=C[C@@]1(C)CC(=O)[C@]2(O)[C@@]3(C)[C@@H](O)CCC(C)(C)[C@@H]3[C@H](OC(=O)NCCN(C)C)[C@H](OC(C)=O)[C@@]2(C)O1
3,59,C=C[C@@]1(C)CC(=O)[C@]2(O)[C@@]3(C)[C@@H](O)CCC(C)(C)[C@@H]3[C@H](OC(=O)NCCc3ccccn3)[C@H](O)[C@@]2(C)O1
4,45,C=C[C@@]1(C)CC(=O)[C@]2(O)[C@@]3(C)[C@@H](O)CCC(C)(C)[C@@H]3[C@H](O)[C@H](OC(=O)NCCc3ccc(O)cc3)[C@@]2(C)O1
5,55,C=C[C@@]1(C)CC(=O)[C@]2(O)[C@@]3(C)[C@@H](O)CCC(C)(C)[C@@H]3[C@H](OC(=O)NCCc3ccc(N)cc3)[C@H](OC(C)=O)[C@@]2(C)O1
6,51,C=C[C@@]1(C)CC(=O)[C@]2(O)[C@@]3(C)[C@@H](O)CCC(C)(C)[C@@H]3[C@H](OC(=O)NCC3CCCCC3)[C@H](O)[C@@]2(C)O1
